Where two headings read alike, the source gives them in different places.
What was measured:
[1] = assay type: in vivo, rat; conditions: SD rats; for AUC(0-t) / AUC(0-∞) / Cmax / T1/2 / Tmax: nucleoside metabolite in plasma; for F % (bioavailability): nucleoside metabolite
Experimental: 6 Male SD rats for each compound were divided into 2 groups (gastric administration group and intravenous injection group), 3 rats in each group. The rates were fasted for 12 h before the experiment (the intravenous experiment group was not fasted), had free access to water, and ate uniformly 4 hours after the administration. The dosages of C22 and C23 were 16 mg/kg and 20 mg/kg for intragastric administration, respectively, and the administration vehicle was 5% DMSO+5% solutol+90% saline. The intravenous injection dosages were 4 mg/kg and 5 mg/kg respectively, and the administration vehicle was DMSO/EtOH/PEG300/0.9% NaCl (5/5/40/50, v/v/v/v). 0.2 mL of blood was collected from the jugular vein 5 min, 0.25 h, 0.5 h, 1.0 h, 2.0 h, 4.0 h, 6.0 h, 8.0 h and 24 h after the administration, placed in an EDTA-K2 test tube abd centrifuged at 11,000 rpm for 5 minutes, and the plasma was separated, and stored in a −70° C. refrigerator for testing. The operation was under an ice water bath. The concentration of nucleoside metabolites in plasma was determined by LC-MS-MS, and the pharmacokinetic parameters were calculated.

[2] = Cytotoxicity in MDCK cells (no viral infection); assay type: cell-based; conditions: dog, without viral infection, read-out: H3N2 (MDCK) CC50
Experimental: (§1) Determination of the inhibitory activity of compounds on the replication of respiratory syncytial virus (RSV), human coronavirus OC43, influenza A virus, and Zika virus by Cytopathogenic effect (CPE): the experimental cells were inoculated at a certain cell density to 96 well cell culture plates, and cultured overnight in a 5% CO2, 37° C. incubator. The compounds and viruses were added the next day. Depending on the tested virus, the cells were cultured in an incubator for 3-7 days under 5% CO2, 33° C. or 37° C., until 80-95% of the cells in the virus-infected control wells without compound had pathological changes. Cell viability in each well was then detected with CellTiter-Glo or CCK-8. […] The cytotoxicity test method is the same as the corresponding antiviral test method, but without viral infection.
(§2) The antiviral activity and cytotoxicity of the compound are represented by the inhibition rate (%) of the compound on the virus-induced cellular viral effect and the cell viability (%), respectively. Calculation equations are as follows:
(§3) Cell viability (%)=(reading value of test well−average value of medium control)/(average value of cell control−average value of medium control)×100;
(§4) EC50 and CC50 values were calculated by Prism software, and the inhibition curve fitting method was “log (inhibitor) vs. response—Variable slope”.

in vitro = conditions: human
[3] = system: respiratory syncytial virus (RSV); experiment: Inhibition of respiratory syncytial virus replication by CPE in HEp-2; assay type: cell-based; conditions: human respiratory syncytial virus, HEp-2, read-out: RSV (HEp-2) EC50
influenza A virus (H3N2) = experiment: Inhibition of influenza virus H3N2 replication by CPE in MDCK; assay type: cell-based; conditions: MDCK cells
[4] = assay type: in vivo, cynomolgus monkey; conditions: cynomolgus monkeys, single intragastric 0.35 mmol/kg
[5] = assay type: in vivo, rat; conditions: SD rats
Experimental: 6 Male SD rats for each compound were divided into 2 groups (gastric administration group and intravenous injection group), 3 rats in each group. The rats were fasted for 12 h before the experiment (the intravenous experiment group was not fasted), had free access to water, and ate uniformly 4 hours after the administration. […] The dosage of C38 was 10 mg/kg for intragastric administration, 2 mg/kg for intravenous injection, and the administration vehicle was DMSO/EtOH/PEG300/0.9% NaCl (5/5/40/50, v/v/v/v). 0.2 mL of blood was collected from the jugular vein at 5 min (intravenous group only), 0.25 h, 0.5 h, 1.0 h, 2.0 h, 4.0 h, 6.0 h, 8.0 h and 24 h after the administration, placed in an EDTA-K2 test tube and centrifuged at 11,000 rpm for 5 minutes, and the plasma was separated, and stored in a −70° C. refrigerator for testing. The operation was under an ice water bath. The concentration of nucleoside metabolites in plasma was determined by LC-MS-MS, and the pharmacokinetic parameters were calculated.

[6] = Cytotoxicity in Vero cells (SARS-CoV-2 test); assay type: cell-based; conditions: African green monkey
[7] = Cytotoxicity in Huh7 cells (no viral infection); assay type: cell-based; conditions: human, without viral infection, read-out: HCoV OC43 (Huh7) CC50
Experimental: as §1, §2, §3, §4

[8] = system: 2019 novel coronavirus (SARS-CoV-2); experiment: Inhibition of SARS-CoV-2 replication in Vero cells (qRT-PCR); assay type: cell-based; conditions: Severe acute respiratory syndrome coronavirus 2, 48 hours, virus copy number in supernatant by qRT-PCR
dengue virus (DENV) = experiment: Dengue virus plaque reduction assay in Vero cells; assay type: cell-based; conditions: read-out: DENV (Vero) Inhibition rate at 5 μM
Experimental: Determination of the inhibitory activity of compounds against dengue virus by plaque reduction assay: Vero cells were inoculated into 6-well cell culture plates at a density of 600,000 cells per well, and cultured overnight in a 5% CO2, 37° C. incubator. The compounds and virus (40-50 PFU/well) were added the next day. The cells were cultured in an incubator at 5% CO2 and 37° C. for 2 hours, then the supernatant was aspirated, and the low-melting point agarose culture medium containing the corresponding concentration of the compound was added. The cells were cultured in an incubator at 5% CO2, 33° C. or 37° C. for 6-7 days, until obvious virus plaques could be observed in the virus-infected control wells without compound under the microscope. Cells were fixed with 4% paraformaldehyde and stained with crystal violet. The number of plaques in each well was calculated. Cytotoxicity experiments were performed in parallel with antiviral experiments. Vero cells were inoculated into 96-well cell culture plates at a density of 20,000 cells per well, and cultured overnight in a 5% CO2, 37° C. incubator. The compounds were added the next day (1-5 concentration points, single point). The cells were cultured in an incubator at 5% CO2, 33° C. or 37° C. for 6-7 days. Cell viability in each well was then detected with CCK-8.

Zika virus = experiment: Inhibition of Zika virus replication by CPE in Huh7; assay type: cell-based; conditions: for inhibition at 5 µM: Huh-7, read-out: Zika (Huh7) Inhibition rate
[9] = in monkeys; cited from earlier work
[10] = system: porcine epidemic diarrhea virus (PEDV); experiment: Inhibition of PEDV replication in Vero cells by fluorescent quantitative PCR; conditions: 36 h, read-out: PEDV (Vero) EC50
[11] = nucleoside metabolite in plasma, iv 2 mg/kg
[12] = nucleoside metabolite in plasma, po 10 mg/kg

[2H]c1cc([C@]2(C#N)O[C@H](CO)[C@H]3OC(=O)O[C@H]32)n2ncnc(N)c12 [Compound C22]
AUC(0-t) ([1]; iv 4 mg/kg): 2348 ng·h/mL
AUC(0-∞) ([1]; iv 4 mg/kg): 2398 ng·h/mL
Cmax ([1]; iv 4 mg/kg): 2883 ng/mL
T1/2 ([1]; iv 4 mg/kg): 1.35 h
AUC(0-t) ([1]; po 16 mg/kg): 7068 ng·h/mL
AUC(0-∞) ([1]; po 16 mg/kg): 7157 ng·h/mL
Cmax ([1]; po 16 mg/kg): 2217 ng/mL
T1/2 ([1]; po 16 mg/kg): 1.08 h
Tmax ([1]; po 16 mg/kg): 30 min
F % (bioavailability) ([1]; po 16 mg/kg vs iv 4 mg/kg): 75.3%

CCCCCCCCCCCCCCCC(=O)OC[C@@]1(F)O[C@@H](n2ccc(=O)[nH]c2=O)[C@@H]2OC(=O)O[C@@H]21 [Compound B41]
CC50 [2]: > 10 µM
CC50 (in vitro): > 10 µM
EC50 [3]: 460 nM
EC50 (influenza A virus (H3N2)): < 500 nM

CC(C)C(=O)OC[C@@]1(F)O[C@@H](n2ccc(=O)[nH]c2=O)[C@@H]2OC(=O)O[C@@H]21 [Compound B2]
CC50 [2]: > 10 µM
CC50 (in vitro): > 10 µM
EC50 [3]: > 10000 nM
EC50 (influenza A virus (H3N2)): > 10000 nM

CC(C)[C@H](N)C(=O)OC[C@H]1O[C@@H](n2cc/c(=N/O)[nH]c2=O)[C@@H]2OC(=O)O[C@@H]21.Cl [Compound A6]
AUC(0-t) ([4]; analyte A1): 818 ng·h/mL
Cmax ([4]; analyte A1): 326 ng/mL
Tmax ([4]; analyte A1): 1.50 h
t1/2 ([4]; analyte A1): 54.6 min
AUC(0-t) ([4]; nucleoside metabolite NHC): 2417 ng·h/mL
Cmax ([4]; nucleoside metabolite NHC): 1209 ng/mL
T1/2 ([4]; nucleoside metabolite NHC): 49.8 min
Tmax ([4]; nucleoside metabolite NHC): 1.50 h

[2H]c1cc([C@]2(C#N)O[C@H](CO)[C@H]3OC(CC)O[C@H]32)n2ncnc(N)c12 (some centres unmarked) [Compound C38]
AUC(0-t) [5, 11]: 551 ng·h/mL
AUC(0-∞) [5, 11]: 586 ng·h/mL
Cmax [5, 11]: 217 ng/mL
T1/2 [5, 11]: 1.9 h
AUC(0-t) [5, 12]: 2388 ng·h/mL
AUC(0-∞) [5, 12]: 2454 ng·h/mL
Cmax [5, 12]: 586 ng/mL
T1/2 [5, 12]: 3.1 h
Tmax [5, 12]: 45 min
F % (bioavailability) ([5]; nucleoside metabolite, po 10 mg/kg vs iv 2 mg/kg): 87%

[2H]c1cc([C@]2(C#N)O[C@H](CO)[C@@H](O)[C@H]2O)n2ncnc(N)c12 [Compound C22-0]
CC50 [6]: > 10 µM
CC50 (in vitro): > 10 µM
EC50 [3]: 560 nM
CC50 [7]: > 10 µM
EC50 [8]: 460 nM
inhibition at 5 µM (dengue virus (DENV)): 100%

CC(C)C(=O)OC[C@H]1O[C@@H](n2ccc(NO)nc2=O)[C@@H]2OC(=O)O[C@@H]21 [Compound A2]
CC50 [2]: > 10 µM
EC50 (influenza A virus (H3N2)): > 10000 nM

CC(C)[C@H](N)C(=O)OC[C@@]1(F)O[C@@H](n2ccc(=O)[nH]c2=O)[C@@H]2OC(=O)O[C@@H]21 [Compound B6]
CC50 [2]: > 10 µM
CC50 (in vitro): > 10 µM
EC50 [3]: 3460 nM
EC50 (influenza A virus (H3N2)): < 500 nM

N#C[C@@]1(c2ccc3c(N)ncnn23)O[C@H](CO)[C@@H](O)[C@H]1O [GS-441524, (2R,3R,4S,5R)-2-(4-aminopyrrolo[2,1-F][1,2,4]triazin-7-yl)-3,4-dihydroxy-5-(hydroxymethyl)tetrahydrofuran-2-carbonitrile]
EC50 (Zika virus; Huh-7, read-out: Zika (Huh7) EC50): 15 µM
CC50 [6]: > 10 µM
CC50 (in vitro): > 10 µM
oral bioavailability [9]: less than 10%
EC50 [3]: 730 nM
CC50 [7]: > 10 µM
EC50 [8]: 470 nM
EC50 [10]: 310 nM

CCC(CC)COC(=O)[C@H](C)N[P@](=O)(OC[C@@]1(F)O[C@@H](n2ccc(=O)[nH]c2=O)[C@@H]2OC(=O)O[C@@H]21)Oc1ccccc1 [Compound B14]
CC50 (in vitro): > 10 µM
EC50 [3]: 1080 nM

CC(=O)OC[C@@]1(F)O[C@@H](n2ccc(=O)[nH]c2=O)[C@@H]2OC(=O)O[C@@H]21 [Compound B38]
CC50 [2]: > 10 µM
CC50 (in vitro): > 10 µM
EC50 [3]: 990 nM
EC50 (influenza A virus (H3N2)): 540 nM

O=c1ccn([C@@H]2O[C@](F)(CO)[C@@H](O)[C@H]2O)c(=O)[nH]1 [Compound B1-N, reference compound]
inhibition at 5 µM (Zika virus): 30%
CC50 [2]: > 10 µM
EC50 (influenza A virus (H3N2)): < 1000 nM

O=C1O[C@H]2[C@H](n3ccc(=O)[nH]c3=O)O[C@](F)(CO)[C@H]2O1 [Compound B1]
CC50 [2]: > 10 µM
CC50 (in vitro): > 10 µM
EC50 [3]: 990 nM
EC50 (influenza A virus (H3N2)): 370 nM

O=C1O[C@H]2[C@H](n3ccc(=O)[nH]c3=O)O[C@](F)(COC(=O)C3CC3)[C@H]2O1 [Compound B4]
CC50 [2]: > 10 µM
CC50 (in vitro): > 10 µM
EC50 [3]: 1020 nM
EC50 (influenza A virus (H3N2)): 1380 nM

O=c1nc(NO)ccn1[C@@H]1O[C@H](CO)[C@@H](O)[C@H]1O [NHC, β-d-N4-hydroxycytidine]
inhibition at 5 µM (Zika virus): 66%
CC50 [6]: > 10 µM
CC50 [2]: > 10 µM
CC50 (in vitro): > 10 µM
oral bioavailability [9]: less than 10%
EC50 [3]: 4600 nM
EC50 [8]: 300 nM
inhibition at 5 µM (dengue virus (DENV)): 40%
EC50 [10]: 1170 nM
EC50 (influenza A virus (H3N2)): 770 nM

N#C[C@@]1(c2ccc3c(N)ncnn23)O[C@H](CO)[C@H]2OC(=O)O[C@H]21 [Compound C21]
CC50 (in vitro): > 10 µM
EC50 [3]: 490 nM

[2H]c1cc([C@]2(C#N)O[C@H](COC(=O)C(C)C)[C@H]3OC(=O)O[C@H]32)n2ncnc(N)c12 [Compound C23]
AUC(0-t) ([1]; iv 5 mg/kg): 3954 ng·h/mL
AUC(0-∞) ([1]; iv 5 mg/kg): 4024 ng·h/mL
Cmax ([1]; iv 5 mg/kg): 3903 ng/mL
T1/2 ([1]; iv 5 mg/kg): 5.24 h
AUC(0-t) ([1]; po 20 mg/kg): 11360 ng·h/mL
AUC(0-∞) ([1]; po 20 mg/kg): 11393 ng·h/mL
Cmax ([1]; po 20 mg/kg): 2933 ng/mL
T1/2 ([1]; po 20 mg/kg): 3.47 h
Tmax ([1]; po 20 mg/kg): 60 min
F % (bioavailability) ([1]; po 20 mg/kg vs iv 5 mg/kg): 71.8%
